Calls of active or inactive are those of the source.
Columns and labels:
[1] = Counterscreen for AddAB inhibitors: absorbance-based bacterial cell-based high throughput dose response assay for inhibitors of bacterial viability. [Related pubchem assays (depositor defined):AID435030, AID449728, AID449731, AID488942, AID488955, AID488956]; format: functional
[2] = biological target: T1, Exodeoxyribonuclease V (Escherichia coli (strain K12), UniProt P04993+P07648+P08394); test: E. coli RecBCD inhibitors, dose response, counter-screen for AddAB inhibitor project, absorbance, V66 E. coli, mutant T4 phage (AID 492957); format: functional, cell-based, Escherichia coli str. K-12 substr. MG1655
T1 sequence (P04993 whole entry): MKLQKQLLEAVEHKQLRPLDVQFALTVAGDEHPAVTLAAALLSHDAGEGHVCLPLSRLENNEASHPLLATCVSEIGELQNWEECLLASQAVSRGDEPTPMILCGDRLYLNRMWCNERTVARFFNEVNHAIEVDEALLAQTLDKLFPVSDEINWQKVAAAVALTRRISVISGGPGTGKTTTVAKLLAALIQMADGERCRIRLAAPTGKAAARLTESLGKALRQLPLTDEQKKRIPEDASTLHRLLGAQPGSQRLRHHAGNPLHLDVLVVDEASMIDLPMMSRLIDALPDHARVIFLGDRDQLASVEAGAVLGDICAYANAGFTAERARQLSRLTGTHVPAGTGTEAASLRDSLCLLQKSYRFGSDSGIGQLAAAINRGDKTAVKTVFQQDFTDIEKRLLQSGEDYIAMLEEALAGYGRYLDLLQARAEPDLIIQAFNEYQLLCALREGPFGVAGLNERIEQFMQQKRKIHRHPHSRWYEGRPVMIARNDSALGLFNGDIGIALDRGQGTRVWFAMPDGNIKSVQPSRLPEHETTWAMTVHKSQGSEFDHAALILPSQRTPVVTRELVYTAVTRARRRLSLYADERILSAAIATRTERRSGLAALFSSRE
T1 sequence (P07648 whole entry): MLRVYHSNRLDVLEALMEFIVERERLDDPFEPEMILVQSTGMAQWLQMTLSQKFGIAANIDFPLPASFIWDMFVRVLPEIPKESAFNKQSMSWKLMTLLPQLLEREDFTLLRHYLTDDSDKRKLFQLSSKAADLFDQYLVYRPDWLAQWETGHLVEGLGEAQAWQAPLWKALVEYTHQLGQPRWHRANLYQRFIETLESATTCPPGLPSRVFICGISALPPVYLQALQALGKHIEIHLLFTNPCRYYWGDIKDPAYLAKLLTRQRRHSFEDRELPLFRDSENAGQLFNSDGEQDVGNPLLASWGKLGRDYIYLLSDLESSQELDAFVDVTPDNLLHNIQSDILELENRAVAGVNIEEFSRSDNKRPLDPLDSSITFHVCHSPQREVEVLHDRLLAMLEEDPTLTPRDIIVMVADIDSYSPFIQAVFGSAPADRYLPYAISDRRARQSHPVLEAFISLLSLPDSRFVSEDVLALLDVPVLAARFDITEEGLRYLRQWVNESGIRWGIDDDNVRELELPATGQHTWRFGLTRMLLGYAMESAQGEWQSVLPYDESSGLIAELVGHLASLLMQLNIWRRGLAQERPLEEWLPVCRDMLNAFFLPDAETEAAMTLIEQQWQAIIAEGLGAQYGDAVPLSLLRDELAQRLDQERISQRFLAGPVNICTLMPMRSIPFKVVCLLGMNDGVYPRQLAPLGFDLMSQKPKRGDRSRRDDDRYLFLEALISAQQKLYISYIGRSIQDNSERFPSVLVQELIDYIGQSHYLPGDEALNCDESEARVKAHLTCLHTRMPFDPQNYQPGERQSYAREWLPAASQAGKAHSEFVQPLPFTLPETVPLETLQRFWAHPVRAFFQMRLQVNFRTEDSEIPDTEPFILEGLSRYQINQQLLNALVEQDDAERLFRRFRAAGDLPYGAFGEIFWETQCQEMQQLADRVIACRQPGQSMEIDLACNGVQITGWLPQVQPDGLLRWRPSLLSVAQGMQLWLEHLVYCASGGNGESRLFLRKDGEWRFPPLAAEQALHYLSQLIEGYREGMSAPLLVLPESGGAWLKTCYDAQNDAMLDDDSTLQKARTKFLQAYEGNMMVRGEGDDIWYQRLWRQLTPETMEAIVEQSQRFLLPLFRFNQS
T1 sequence (P08394 whole entry): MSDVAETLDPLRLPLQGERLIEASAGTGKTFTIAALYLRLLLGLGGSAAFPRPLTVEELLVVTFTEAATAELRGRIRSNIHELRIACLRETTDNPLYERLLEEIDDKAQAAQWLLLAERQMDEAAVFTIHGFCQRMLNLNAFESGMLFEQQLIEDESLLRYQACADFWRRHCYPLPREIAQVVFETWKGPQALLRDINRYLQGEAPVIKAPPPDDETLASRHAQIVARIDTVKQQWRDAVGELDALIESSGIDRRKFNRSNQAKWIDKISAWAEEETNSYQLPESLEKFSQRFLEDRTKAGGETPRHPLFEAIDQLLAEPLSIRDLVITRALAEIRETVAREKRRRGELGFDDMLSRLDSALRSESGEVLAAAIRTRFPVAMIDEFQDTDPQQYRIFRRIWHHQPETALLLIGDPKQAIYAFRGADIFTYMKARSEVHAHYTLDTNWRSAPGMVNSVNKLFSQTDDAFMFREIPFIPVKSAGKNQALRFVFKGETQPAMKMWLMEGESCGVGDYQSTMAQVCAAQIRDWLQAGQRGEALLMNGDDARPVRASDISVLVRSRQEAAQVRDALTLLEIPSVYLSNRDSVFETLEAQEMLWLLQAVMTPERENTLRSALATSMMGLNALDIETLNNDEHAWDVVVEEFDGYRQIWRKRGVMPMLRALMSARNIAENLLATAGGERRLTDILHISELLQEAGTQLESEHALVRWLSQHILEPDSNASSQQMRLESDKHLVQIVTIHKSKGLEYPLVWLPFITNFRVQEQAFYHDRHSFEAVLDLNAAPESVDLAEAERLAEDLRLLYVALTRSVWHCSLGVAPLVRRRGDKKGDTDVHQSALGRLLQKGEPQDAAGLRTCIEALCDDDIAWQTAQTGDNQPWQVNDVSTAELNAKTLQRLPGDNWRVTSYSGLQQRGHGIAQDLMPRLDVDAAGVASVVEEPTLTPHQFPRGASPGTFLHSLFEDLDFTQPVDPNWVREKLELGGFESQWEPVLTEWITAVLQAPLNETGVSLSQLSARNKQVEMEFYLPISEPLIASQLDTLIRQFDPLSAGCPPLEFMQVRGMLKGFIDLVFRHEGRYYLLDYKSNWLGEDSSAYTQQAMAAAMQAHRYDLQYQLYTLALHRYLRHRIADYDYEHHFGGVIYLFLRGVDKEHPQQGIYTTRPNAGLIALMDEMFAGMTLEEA

[3] = biological target: T2, DNA repair protein RAD52 homolog (Homo sapiens, UniProt P43351); format: functional, biochemical
T2 sequence (P43351 whole entry): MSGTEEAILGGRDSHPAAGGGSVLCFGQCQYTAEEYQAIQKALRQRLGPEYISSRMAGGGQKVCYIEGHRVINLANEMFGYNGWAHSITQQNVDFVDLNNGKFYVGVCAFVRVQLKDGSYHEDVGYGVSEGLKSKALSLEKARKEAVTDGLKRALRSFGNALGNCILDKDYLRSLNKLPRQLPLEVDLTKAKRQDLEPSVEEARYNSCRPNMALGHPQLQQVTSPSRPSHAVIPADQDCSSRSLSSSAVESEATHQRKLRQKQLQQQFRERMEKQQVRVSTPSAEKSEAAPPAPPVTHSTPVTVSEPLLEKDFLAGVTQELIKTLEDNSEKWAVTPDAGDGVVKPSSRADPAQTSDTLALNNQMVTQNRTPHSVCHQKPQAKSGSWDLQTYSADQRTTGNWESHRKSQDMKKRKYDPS

[4] = test system: HEK293; test: cells; details: Homo sapiens
[5] = Shn3 3'UTR reporter inhibitors, dose response, cell-based, Clone20 osteoblasts, firefly luciferase, cherry-picked (AID 624132); format: functional;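 also: firefly luciferase luminescence from reporter carrying the Shn3 3'UTR in osteoblasts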
[6] = HepG2 cell cytotoxicity, dose response, cytotoxicity control for Shn3 inhibitor project, CellTiter-Glo, cherry-picked (AID 624134); format: functional, cell-based
[7] = test system: HEK293; test: cells; details: Homo sapiens; remark: listed apart in the source
[8] = control 3'UTR Renilla luciferase suppression, dose response, counter-screen for Shn3 inhibitor project, cell-based, Clone20-Shn3RL, cherry-picked (AID 624133); format: functional
[9] = biological target: T3, Calpain-2 catalytic subunit (Sus scrofa, UniProt P43367); test: pig calpain II inhibitor potency, dose response, biochemical, fluorogenic peptide substrate (AID 1420); format: functional
T3 sequence (P43367 whole entry): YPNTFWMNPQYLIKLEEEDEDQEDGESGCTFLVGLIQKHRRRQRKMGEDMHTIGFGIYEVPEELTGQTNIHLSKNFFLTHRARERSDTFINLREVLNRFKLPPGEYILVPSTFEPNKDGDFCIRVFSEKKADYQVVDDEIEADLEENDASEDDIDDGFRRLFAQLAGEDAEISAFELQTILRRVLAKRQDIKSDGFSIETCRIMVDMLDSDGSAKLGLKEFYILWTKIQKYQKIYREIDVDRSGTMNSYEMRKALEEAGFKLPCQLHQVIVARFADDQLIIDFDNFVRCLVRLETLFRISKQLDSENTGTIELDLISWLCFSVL

[10] = biological target: T4, Coagulation factor XII (Homo sapiens, UniProt P00748); format: functional;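 also: activated factor XIIa alpha cleaving a fluorogenic AMC peptide substrate; inhibitor potency from loss of enzyme activity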
T4 sequence (P00748 whole entry): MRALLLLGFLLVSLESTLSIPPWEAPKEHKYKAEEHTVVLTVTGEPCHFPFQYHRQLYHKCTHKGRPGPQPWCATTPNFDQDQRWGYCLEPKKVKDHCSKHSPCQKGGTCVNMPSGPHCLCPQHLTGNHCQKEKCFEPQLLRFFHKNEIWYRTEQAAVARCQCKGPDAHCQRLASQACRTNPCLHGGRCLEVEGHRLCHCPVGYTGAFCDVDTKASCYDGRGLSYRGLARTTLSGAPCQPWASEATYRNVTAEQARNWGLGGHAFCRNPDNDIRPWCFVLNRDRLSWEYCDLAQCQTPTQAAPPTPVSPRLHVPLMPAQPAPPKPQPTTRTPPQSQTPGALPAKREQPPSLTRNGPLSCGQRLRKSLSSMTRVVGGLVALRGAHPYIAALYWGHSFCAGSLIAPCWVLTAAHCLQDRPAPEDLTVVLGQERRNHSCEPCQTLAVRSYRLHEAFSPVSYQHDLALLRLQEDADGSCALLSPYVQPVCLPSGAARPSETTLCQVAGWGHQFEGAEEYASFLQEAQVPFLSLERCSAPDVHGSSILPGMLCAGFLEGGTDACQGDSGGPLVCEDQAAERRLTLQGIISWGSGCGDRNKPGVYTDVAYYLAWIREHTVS

CC(=O)c1ccc(NC(S)=NC(NC(=O)c2ccco2)C(Cl)(Cl)Cl)cc1 (configuration not stated)
IC50 [1]: > 119 µM (inactive)
IC50 [2]: > 119 µM (inactive)

CN(C)CCNC(=O)c1cccc2nc3cccc(F)c3nc12
AC50 [3]: 4.63 µM (active)
EC50 [4]: > 59.6 µM (inactive)
AC50 [5]: 13.7 µM (active)
AC50 [6]: 4.69 µM (active)
EC50 [7]: > 59.6 µM (inactive)
AC50 [8]: 23.8 µM (active)

O=C(c1ccc(N2CCCC2=O)cc1)N1CCCCCC1
IC50 [9]: 6.62 µM (not active)
IC50 [10]: > 50 µM (inactive)

CCN(CC)S(=O)(=O)c1cc(NC(=O)CSCc2c(C)noc2C)ccc1C
EC50 [4]: > 59.6 µM (inactive)
EC50 [7]: > 59.6 µM (inactive)

From ChEMBL document CHEMBL1201862, “PubChem BioAssay data set” (2004)
